Test system: hepatocytes
Experiment: RNA-seq of hepatocytes treated with Phase III failure compounds
Description: RNA-seq was performed to determine the effects of the compounds on hepatocytes.
Significance was determined by the criteria of FPKM≥0.5, a log 2(fold-change)≥1, and a […].

COc1nc(N)nc2c1ncn2[C@@H]1O[C@H](COP(=O)(N[C@@H](C)C(=O)OCC(C)(C)C)Oc2cccc3ccccc23)[C@@H](O)[C@@]1(C)O (stereo partly shown) [Bms-986094 (inx-189), Bms-986094]
significant modulation of expression of disease genes (RNA-seq, q≤0.05, hepatocytes, genes in the value or listed in the block): significantly (q≤0.05) modulate expression
A1BG expression, RNA-seq result (gene A1BG, hepatocytes): −0.1
AARS2 expression, RNA-seq result (gene AARS2, hepatocytes): 0.13
AASS expression, RNA-seq result (gene AASS, hepatocytes): −0.77
ABAT expression, RNA-seq result (gene ABAT, hepatocytes): −1.42
ABCA1 expression, RNA-seq result (gene ABCA1, hepatocytes): −0.43
ABCB4 expression, RNA-seq result (gene ABCB4, hepatocytes): −0.43
ABCB11 expression, RNA-seq result (gene ABCB11, hepatocytes): −0.76
ABCC2 expression, RNA-seq result (gene ABCC2, hepatocytes): −1.34
ABCC3 expression, RNA-seq result (gene ABCC3, hepatocytes): −0.96
ABCC6 expression, RNA-seq result (gene ABCC6, hepatocytes): −1.45
ABCD1 expression, RNA-seq result (gene ABCD1, hepatocytes): 0.08
ABCD3 expression, RNA-seq result (gene ABCD3, hepatocytes): −0.4
ABCG5 expression, RNA-seq result (gene ABCG5, hepatocytes): −0.11
ABCG8 expression, RNA-seq result (gene ABCG8, hepatocytes): −0.11
ABHD5 expression, RNA-seq result (gene ABHD5, hepatocytes): 0.25
ACACA expression, RNA-seq result (gene ACACA, hepatocytes): −2.09
ACACB expression, RNA-seq result (gene ACACB, hepatocytes): −1.86
ACAD9 expression, RNA-seq result (gene ACAD9, hepatocytes): −0.83
ACADSB expression, RNA-seq result (gene ACADSB, hepatocytes): −0.04
ACADVL expression, RNA-seq result (gene ACADVL, hepatocytes): 0.11
ACOT8 expression, RNA-seq result (gene ACOT8, hepatocytes): −0.33
ACOX2 expression, RNA-seq result (gene ACOX2, hepatocytes): −0.97
ACOX3 expression, RNA-seq result (gene ACOX3, hepatocytes): −1.75
ACSF3 expression, RNA-seq result (gene ACSF3, hepatocytes): −0.6
ACSL1 expression, RNA-seq result (gene ACSL1, hepatocytes): −0.12
ACSL3 expression, RNA-seq result (gene ACSL3, hepatocytes): 0.16
ACTG2 expression, RNA-seq result (gene ACTG2, hepatocytes): −0.13
ACTN1 expression, RNA-seq result (gene ACTN1, hepatocytes): −2.21
ADA expression, RNA-seq result (gene ADA, hepatocytes): −0.72
ADCK3 expression, RNA-seq result (gene ADCK3, hepatocytes): 0.18
ADK expression, RNA-seq result (gene ADK, hepatocytes): −1.7
ADSL expression, RNA-seq result (gene ADSL, hepatocytes): −0.96
AFP expression, RNA-seq result (gene AFP, hepatocytes): −0.16
AGK expression, RNA-seq result (gene AGK, hepatocytes): −0.43
AGL expression, RNA-seq result (gene AGL, hepatocytes): −0.97
AGPAT2 expression, RNA-seq result (gene AGPAT2, hepatocytes): −1.09
AGPS expression, RNA-seq result (gene AGPS, hepatocytes): −1.61
AGT expression, RNA-seq result (gene AGT, hepatocytes): 0.27
AGTR1 expression, RNA-seq result (gene AGTR1, hepatocytes): −0.07
AGXT expression, RNA-seq result (gene AGXT, hepatocytes): −0.66
AHI1 expression, RNA-seq result (gene AHI1, hepatocytes): −0.61
AHSG expression, RNA-seq result (gene AHSG, hepatocytes): −0.32
AK1 expression, RNA-seq result (gene AK1, hepatocytes): 0.62
AKR1C1 expression, RNA-seq result (gene AKR1C1, hepatocytes): −0.96
AKR1C2 expression, RNA-seq result (gene AKR1C2, hepatocytes): −1.2
AKR1C4 expression, RNA-seq result (gene AKR1C4, hepatocytes): −1.68
AKR1D1 expression, RNA-seq result (gene AKR1D1, hepatocytes): 0.17
ALAD expression, RNA-seq result (gene ALAD, hepatocytes): −0.69
ALAS1 expression, RNA-seq result (gene ALAS1, hepatocytes): 0.11
ALDH1B1 expression, RNA-seq result (gene ALDH1B1, hepatocytes): −0.86
ALDH2 expression, RNA-seq result (gene ALDH2, hepatocytes): −0.04
ALDH6A1 expression, RNA-seq result (gene ALDH6A1, hepatocytes): −0.08
ALDOA expression, RNA-seq result (gene ALDOA, hepatocytes): −0.48
ALDOB expression, RNA-seq result (gene ALDOB, hepatocytes): −0.27
ALG12 expression, RNA-seq result (gene ALG12, hepatocytes): −0.76
ALMS1 expression, RNA-seq result (gene ALMS1, hepatocytes): −1.35
ALPL expression, RNA-seq result (gene ALPL, hepatocytes): −1.05
AMACR expression, RNA-seq result (gene AMACR, hepatocytes): 0.28
AMPD3 expression, RNA-seq result (gene AMPD3, hepatocytes): 0.57
AMT expression, RNA-seq result (gene AMT, hepatocytes): −0.61
ANGPTL3 expression, RNA-seq result (gene ANGPTL3, hepatocytes): −0.73
ANKS4B expression, RNA-seq result (gene ANKS4B, hepatocytes): −0.39
ANKS6 expression, RNA-seq result (gene ANKS6, hepatocytes): −0.13
ANPEP expression, RNA-seq result (gene ANPEP, hepatocytes): −0.47
AOC2 expression, RNA-seq result (gene AOC2, hepatocytes): 0.32
AP3B1 expression, RNA-seq result (gene AP3B1, hepatocytes): −1.36
APC expression, RNA-seq result (gene APC, hepatocytes): −0.04
APOA1 expression, RNA-seq result (gene APOA1, hepatocytes): −0.05
APOA2 expression, RNA-seq result (gene APOA2, hepatocytes): 0.31
APOA5 expression, RNA-seq result (gene APOA5, hepatocytes): −0.18
APOB expression, RNA-seq result (gene APOB, hepatocytes): −0.78
APOC2 expression, RNA-seq result (gene APOC2, hepatocytes): 0
APOC3 expression, RNA-seq result (gene APOC3, hepatocytes): 0.42
APOE expression, RNA-seq result (gene APOE, hepatocytes): −0.56
APRT expression, RNA-seq result (gene APRT, hepatocytes): −0.42
AQP7 expression, RNA-seq result (gene AQP7, hepatocytes): −0.35
AQP9 expression, RNA-seq result (gene AQP9, hepatocytes): −0.05
ARG1 expression, RNA-seq result (gene ARG1, hepatocytes): −1.7
ARG2 expression, RNA-seq result (gene ARG2, hepatocytes): 0.62
ARL13B expression, RNA-seq result (gene ARL13B, hepatocytes): −0.67
ARSA expression, RNA-seq result (gene ARSA, hepatocytes): 0.27
ARSB expression, RNA-seq result (gene ARSB, hepatocytes): −0.25
ASL expression, RNA-seq result (gene ASL, hepatocytes): −0.24
ASNS expression, RNA-seq result (gene ASNS, hepatocytes): 1.61
ASPA expression, RNA-seq result (gene ASPA, hepatocytes): 1.55
ASXL1 expression, RNA-seq result (gene ASXL1, hepatocytes): −1.04
ATG7 expression, RNA-seq result (gene ATG7, hepatocytes): −1.54
ATIC expression, RNA-seq result (gene ATIC, hepatocytes): −0.74
ATM expression, RNA-seq result (gene ATM, hepatocytes): −0.5
ATP7A expression, RNA-seq result (gene ATP7A, hepatocytes): −0.03
ATP7B expression, RNA-seq result (gene ATP7B, hepatocytes): −0.8
ATP8B1 expression, RNA-seq result (gene ATP8B1, hepatocytes): −2.3
B2M expression, RNA-seq result (gene B2M, hepatocytes): 0.23
B9D2 expression, RNA-seq result (gene B9D2, hepatocytes): −0.83
BAAT expression, RNA-seq result (gene BAAT, hepatocytes): −1.93
BBOX1 expression, RNA-seq result (gene BBOX1, hepatocytes): −0.77
BBS10 expression, RNA-seq result (gene BBS10, hepatocytes): 0.59
BCHE expression, RNA-seq result (gene BCHE, hepatocytes): −0.67
BCKDHB expression, RNA-seq result (gene BCKDHB, hepatocytes): −1.21
BCKDK expression, RNA-seq result (gene BCKDK, hepatocytes): −0.42
BCO1 expression, RNA-seq result (gene BCO1, hepatocytes): 0.72
BCR expression, RNA-seq result (gene BCR, hepatocytes): −1.54
BLNK expression, RNA-seq result (gene BLNK, hepatocytes): 1.31
BLOC1S3 expression, RNA-seq result (gene BLOC1S3, hepatocytes): 0.01
BMPR1A expression, RNA-seq result (gene BMPR1A, hepatocytes): −0.9
BRAF expression, RNA-seq result (gene BRAF, hepatocytes): −0.44
BSCL2 expression, RNA-seq result (gene BSCL2, hepatocytes): 0.07
BTD expression, RNA-seq result (gene BTD, hepatocytes): −0.53
C4A expression, RNA-seq result (gene C4A, hepatocytes): 0.29
C9 expression, RNA-seq result (gene C9, hepatocytes): 0.55
C10orf10 expression, RNA-seq result (gene C10orf10, hepatocytes): 0.23
C10orf11 expression, RNA-seq result (gene C10orf11, hepatocytes): −2.08
C15orf41 expression, RNA-seq result (gene C15orf41, hepatocytes): −1.68
CA2 expression, RNA-seq result (gene CA2, hepatocytes): 0.9
CA5A expression, RNA-seq result (gene CA5A, hepatocytes): −1.34
CA12 expression, RNA-seq result (gene CA12, hepatocytes): 0.58
CAV1 expression, RNA-seq result (gene CAV1, hepatocytes): −0.74
CCND1 expression, RNA-seq result (gene CCND1, hepatocytes): −0.78
CD46 expression, RNA-seq result (gene CD46, hepatocytes): 0.43
CD81 expression, RNA-seq result (gene CD81, hepatocytes): 0.03
CD320 expression, RNA-seq result (gene CD320, hepatocytes): −0.96
CDAN1 expression, RNA-seq result (gene CDAN1, hepatocytes): 0.38
CDH1 expression, RNA-seq result (gene CDH1, hepatocytes): −1.79
CEP19 expression, RNA-seq result (gene CEP19, hepatocytes): −0.28
CEP83 expression, RNA-seq result (gene CEP83, hepatocytes): −0.39
CEP164 expression, RNA-seq result (gene CEP164, hepatocytes): 0.23
CEP290 expression, RNA-seq result (gene CEP290, hepatocytes): 0.21
CFB expression, RNA-seq result (gene CFB, hepatocytes): 0.29
CFHR2 expression, RNA-seq result (gene CFHR2, hepatocytes): 0.7
CHRM3 expression, RNA-seq result (gene CHRM3, hepatocytes): −2.02
CIDEC expression, RNA-seq result (gene CIDEC, hepatocytes): −0.6
CLDN1 expression, RNA-seq result (gene CLDN1, hepatocytes): −0.83
COG1 expression, RNA-seq result (gene COG1, hepatocytes): 0.5

CCCn1c(=O)c2[nH]c(C34CC5CC(CC3C5)C4)nc2n(CCC)c1=O [Rolofylline (KW-3902), Rolofylline]
significant changes in gene expression (RNA-seq of Table 36, FPKM≥0.5, log 2(fold-change)≥1, q-value≤0.05): not observed to cause any significant changes in gene expression
significant modulation of expression of any of the genes analyzed (RNA-seq, p≤0.05, hepatocytes): not observed to significantly modulate expression
